This note sets out measurements from PMC11604048, “Constrained TACC3 peptidomimetics for a non-canonical protein–protein interface elucidate allosteric communication in Aurora-A kinase” (Chemical Science, 2024).

This assay addresses T1, Aurora-A122-403-C290A/C393A (Homo sapiens, UniProt O14965, C290A/C393A).
T1 construct: Human Aurora-A kinase domain 122-403 wild-type or C290A/ C393A mutant; His tag (pET30TEV vector) (N, cleaved yes); made in house; host or cells: E. coli RIL, co-expressed with lambda phosphatase (Aurora-A); tracer by solid phase synthesis
T1 sequence (O14965 122-403 C290A/C393A): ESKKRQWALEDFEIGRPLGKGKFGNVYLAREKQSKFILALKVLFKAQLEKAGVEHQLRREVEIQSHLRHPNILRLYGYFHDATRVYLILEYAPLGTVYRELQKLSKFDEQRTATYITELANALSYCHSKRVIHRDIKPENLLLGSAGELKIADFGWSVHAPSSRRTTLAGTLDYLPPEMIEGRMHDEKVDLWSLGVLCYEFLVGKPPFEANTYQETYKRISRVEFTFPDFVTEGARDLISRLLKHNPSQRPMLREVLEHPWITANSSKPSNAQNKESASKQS
The assay can be described thus: Competition FA assay against FAM-Ahx-TACC3 522-536 tracer. The assay is classed as binding. The procedure: Once completed, the mixtures were transferred into SPPS fritted reaction vessels and washed with H2O (5X, 10 mL, 2 min), DMF (5X, 5mL, 2 min) and DCM (5X, 5 mL, 2 min). The clean resins were dried under vacuum and the cyclic peptides cleaved from the resin following the general procedures described in previous sections. After Et2O precipitation, the crude materials were freeze-dried and redissolved in H2O/MeCN/TFA 90/10/0.1% v/v for preparative HPLC purification.
All disulfide peptide variants (ox) were produced in situ from their free-thiol solid precursors. For this, 2 mg of the pure peptide materials were dissolved in aqueous DMSO 33% v/v to a 10 mM concentration and were left open to air oxidation at room temperature overnight. […]
the peptides were employed for FA competition assays and IC50 evaluation without further additional […]
Fluorescence anisotropy (FA) assays – General information.
All assays were performed using 384-well plates(Greiner Bio-one, UK). […]
produced as described previously.11 All samples were prepared in 25 mM Tris,150 mM NaCl, 5 mM MgCl2, pH= 7.5, unless otherwise stated, and tested in triplicate using an EnVisionTM 2103 MultiLabel plate reader (PerkinElmer; Waltham, MA, USA).The parameters were set as follows: Excitation wavelength = 480 nm (30 nm bandwidth) and emission wavelength = 535 nm (30 nm bandwidth). Measured data were processed and analysed as previously described.12 Specifically, the perpendicular intensity (P) and parallel intensity (S) were subtracted by the control values and used for calculations of intensity and anisotropy using the following Equations 1, 2, 3, 4, and 5:
I= (2PG) + S Eq. (SI − 5)
r = (S − PG) Eq. (SI − 6)
L = r − r௠௜௡ Eq. (SI − 7)
y = (k + x + [FL]) − ඥ(k + x + [FL]2 − 4 ∗ x ∗ [FL]) Eq. (SI − 8)
y = r + r௠௜௡ − r௠௔௫ Eq. (SI − 9)
Where I = total intensity; P = perpendicular intensity; S = parallel intensity; G = instrument factor; r = anisotropy; Lb = ligand bound fraction; λ = change in intensity between bound and unbound states which […]
FA direct binding assays. […]
starting from 700 μM, diluted over 24 points in a 1/2 regime using the FAM-Ahx-labeled peptides at a final fixed concentration of 50 nM per well.
FA competition assays were performed using the same plates and buffer as described above, with the initial […]
14 points in a 1/2 regime. […]
after 4 h of incubation to enable appropriate sample equilibration. To prevent sample oxidation, when sulfhydryl peptides were analyzed DTT was added to the buffer (5 mM). In competition mode, the average anisotropy and the average standard deviation of the values derived from equation SI-6 were calculated and fit to a sigmoidal logistic model (equation SI-9) using Origin 2021. When using peptides for which full […]
For consistency, all the data […]
indicating the corresponding SD. […]

Where [1] appears, read: as E1, oxidised (disulfide) species made in situ from 10 mM stock in aqueous DMSO 33% v/v, air, overnight, WT control (+DMSO) given the same DMSO incubation, mean ± SD, n = 3, read-out: IC50 (ox).
Where [2] appears, read: as E1, free-sulfhydryl (reduced) species, DTT 5 mM in buffer, WT control (+DTT), mean ± SD, n = 3, read-out: IC50 (red).
Where [3] appears, read: as E1, Table S3 column (Bph): biphenyl-constrained species, WT value is an individual replica control assay, mean ± SD, n = 3, SD, read-out: IC50 (Bph).

Where two headings read alike, the source gives them in different places. *1 amine or outer side, *2 acyl side, *3 side chain or, on linkers, in order; H or OH if unused. Where a SMILES comes first, the peptide text is derived from it. Bridges are numbered along the chain shown (N, C = ends). [ ]: non-standard residue; d: D form. Biphenyl(4,4'-CH2)2 = c1cc(-c2ccc(C[*:2])cc2)ccc1C[*:1]; Maleimide(3,4-diyl) = O=C1NC(=O)C([*:2])=C1[*:1]; Pro(trans-4-F) = O=C(O)[C@@H]1C[C@@H](F)CN1; Phe(4-Br) = N[C@@H](Cc1ccc(Br)cc1)C(=O)O; Nle = CCCC[C@H](N)C(=O)O

As a reminder, the IC50 is the concentration that inhibits the measured activity by half. In the case of `CC(=O)N[C@@H](CCC(=O)O)C(=O)N[C@@H](CCC(=O)O)C(=O)N[C@@H](CO)C(=O)N[C@@H](Cc1ccccc1)C(=O)N[C@@H](CCCNC(=N)N)C(=O)N[C@@H](CC(=O)O)C(=O)N1CCC[C@H]1C(=O)N[C@@H](C)C(=O)N[C@H]1CSC2=C(SC[C@@H](C(=O)N[C@H](C(=O)NCC(=O)N[C@@H](C)C(N)=O)[C@@H](C)O)NC(=O)[C@H](CC(C)C)NC(=O)[C@H](C(C)C)NC1=O)C(=O)NC2=O` [TACC3 522-536 E530C/G533C (mal)] (Ac-EESFRDPACVLCTGA-NH2; linker 9-12 via Maleimide(3,4-diyl)), for the setting “as E1, Table S3 (mal): maleimide-constrained species, WT value is an individual replica control assay, mean ± SD, n = 3, SD, read-out: IC50 (mal)”, the IC50 amounted to 223 ± 17 µM. In the case of `CC(=O)N[C@@H](CCC(=O)O)C(=O)N[C@H]1CSSC[C@@H](C(=O)N[C@@H](CC(=O)O)C(=O)N2CCC[C@H]2C(=O)N[C@@H](C)C(=O)N[C@@H](CCC(=O)O)C(=O)N[C@H](C(=O)N[C@@H](CC(C)C)C(=O)NCC(=O)N[C@H](C(=O)NCC(=O)N[C@@H](C)C(N)=O)[C@@H](C)O)C(C)C)NC(=O)[C@H](Cc2ccccc2)NC(=O)[C@H](CO)NC1=O` [TACC3 522-536 E523C/R526C (ox)] (Ac-ECSFCDPAEVLGTGA-NH2; disulfide 2-5), the IC50 under setting [1] was at least 500 µM. Still for that read-out and setting: the value for `CC(=O)N[C@H]1CSSC[C@@H](C(=O)N[C@@H](C)C(=O)N[C@@H](CCC(=O)O)C(=O)N[C@H](C(=O)N[C@@H](CC(C)C)C(=O)NCC(=O)N[C@H](C(=O)NCC(=O)N[C@@H](C)C(N)=O)[C@@H](C)O)C(C)C)NC(=O)[C@H](CC(=O)O)NC(=O)[C@H](CCCNC(=N)N)NC(=O)[C@H](Cc2ccccc2)NC(=O)[C@H](CO)NC(=O)[C@H](CCC(=O)O)NC1=O` [TACC3 522-536 E522C/P528C (ox)] (Ac-CESFRDCAEVLGTGA-NH2; disulfide 1-7) was at least 500 µM; that for “Ac-LECKEESFCDPAEVL-NH2 (disulfide 3-9 (inferred)) [TACC3 518-532 L520C/R526C (ox), disulfide form of the Cys variant]” was at least 200 µM. As to `CC(=O)N[C@@H](CCC(=O)O)C(=O)N[C@@H](CCC(=O)O)C(=O)N[C@@H](CS)C(=O)N[C@@H](Cc1ccccc1)C(=O)N[C@@H](CCCNC(=N)N)C(=O)N[C@@H](CS)C(=O)N1CCC[C@H]1C(=O)N[C@@H](C)C(=O)N[C@@H](CCC(=O)O)C(=O)N[C@H](C(=O)N[C@@H](CC(C)C)C(=O)NCC(=O)N[C@H](C(=O)NCC(=O)N[C@@H](C)C(N)=O)[C@@H](C)O)C(C)C` [TACC3 522-536 S524C/D527C (red)] (Ac-EECFRCPAEVLGTGA-NH2), the IC50 (as E1, free-sulfhydryl (reduced) species, DTT 5 mM in buffer, WT control (+DTT), mean ± SD, n = 3, SD, read-out: IC50 (red)) worked out at 309 ± 38 µM. `CCCC[C@H](NC(=O)[C@H](CCC(=O)O)NC(=O)[C@H](C)NC(=O)[C@@H]1CCCN1C(=O)[C@H](CC(=O)O)NC(=O)[C@H](CCCNC(=N)N)NC(=O)[C@H](Cc1ccccc1)NC(=O)[C@H](CO)NC(=O)[C@H](CCC(=O)O)NC(=O)[C@H](CCC(=O)O)NC(C)=O)C(=O)N[C@@H](CC(C)C)C(=O)NCC(=O)N[C@H](C(=O)NCC(=O)N[C@@H](C)C(N)=O)[C@@H](C)O` [TACC3 522-536_V531nL] (Ac-EESFRDPAE[Nle]LGTGA-NH2): for the setting “read-out: IC50”, the IC50 is at least 300 µM. On to `CC(=O)N[C@@H](CCC(=O)O)C(=O)N[C@@H](CCC(=O)O)C(=O)N[C@@H](CO)C(=O)N[C@@H](Cc1ccccc1)C(=O)N[C@@H](CCCNC(=N)N)C(=O)N[C@@H](CC(=O)O)C(=O)N1CCC[C@H]1C(=O)N[C@@H](CS)C(=O)N[C@@H](CCC(=O)O)C(=O)N[C@H](C(=O)N[C@@H](CS)C(=O)NCC(=O)N[C@H](C(=O)NCC(=O)N[C@@H](C)C(N)=O)[C@@H](C)O)C(C)C` [TACC3 522-536 A529C/L532C (red)] (Ac-EESFRDPCEVCGTGA-NH2), for which the IC50 under setting [2] is at least 500 µM. As for `CC(=O)N[C@@H](CCC(=O)O)C(=O)N[C@@H](CCC(=O)O)C(=O)N[C@@H](CO)C(=O)N[C@@H](Cc1ccccc1)C(=O)N[C@H]1CSCc2ccc(cc2)-c2ccc(cc2)CSC[C@@H](C(=O)N[C@@H](CC(C)C)C(=O)NCC(=O)N[C@H](C(=O)NCC(=O)N[C@@H](C)C(N)=O)[C@@H](C)O)NC(=O)[C@H](CCC(=O)O)NC(=O)[C@H](C)NC(=O)[C@@H]2CCCN2C(=O)[C@H](CC(=O)O)NC1=O` [TACC3 522-536 R526C/V531C (Bph)] (Ac-EESFCDPAECLGTGA-NH2; linker 5-10 via Biphenyl(4,4'-CH2)2), under setting [3], the IC50 came to 249 ± 43 µM. Consider `CC(=O)N[C@@H](CCC(=O)O)C(=O)N[C@@H](CCC(=O)O)C(=O)N[C@@H](CO)C(=O)N[C@@H](Cc1c(F)c(F)c(F)c(F)c1F)C(=O)N[C@@H](CCCNC(=N)N)C(=O)N[C@@H](CC(=O)O)C(=O)N1CCC[C@H]1C(=O)N[C@@H](C)C(=O)N[C@@H](CCC(=O)O)C(=O)N[C@H](C(=O)N[C@@H](CC(C)C)C(=O)NCC(=O)N[C@H](C(=O)NCC(=O)N[C@@H](C)C(N)=O)[C@@H](C)O)C(C)C` [TACC3 522-536_5f-525F], for which the IC50 (SD, read-out: IC50) stood at 97 ± 10 µM.

Turning to `CC(=O)N[C@@H](CCC(=O)O)C(=O)N[C@@H](CS)C(=O)N[C@@H](CO)C(=O)N[C@@H](Cc1ccccc1)C(=O)N[C@@H](CS)C(=O)N[C@@H](CC(=O)O)C(=O)N1CCC[C@H]1C(=O)N[C@@H](C)C(=O)N[C@@H](CCC(=O)O)C(=O)N[C@H](C(=O)N[C@@H](CC(C)C)C(=O)NCC(=O)N[C@H](C(=O)NCC(=O)N[C@@H](C)C(N)=O)[C@@H](C)O)C(C)C` [TACC3 522-536 E523C/R526C (red)] (Ac-ECSFCDPAEVLGTGA-NH2), the IC50 under setting [2] was at least 500 µM.

As to `CC(=O)N[C@H]1CSCc2ccc(cc2)-c2ccc(cc2)CSC[C@@H](C(=O)N[C@@H](C)C(=O)N[C@@H](CCC(=O)O)C(=O)N[C@H](C(=O)N[C@@H](CC(C)C)C(=O)NCC(=O)N[C@H](C(=O)NCC(=O)N[C@@H](C)C(N)=O)[C@@H](C)O)C(C)C)NC(=O)[C@H](CC(=O)O)NC(=O)[C@H](CCCNC(=N)N)NC(=O)[C@H](Cc2ccccc2)NC(=O)[C@H](CO)NC(=O)[C@H](CCC(=O)O)NC1=O` [TACC3 522-536 E522C/P528C (Bph)] (Ac-CESFRDCAEVLGTGA-NH2; linker 1-7 via Biphenyl(4,4'-CH2)2), under setting [3], the IC50 is 280 ± 32 µM. Take `CC(=O)N[C@@H](CC(C)C)C(=O)N[C@@H](CCC(=O)O)C(=O)N[C@H]1CSCc2ccc(cc2)-c2ccc(cc2)CSC[C@@H](C(=O)N[C@@H](CC(=O)O)C(=O)N2C[C@H](F)C[C@H]2C(=O)N[C@@H](C)C(=O)N[C@@H](CCC(=O)O)C(=O)N[C@H](C(=O)N[C@@H](CC(C)C)C(N)=O)C(C)C)NC(=O)[C@H](Cc2ccc(Br)cc2)NC(=O)[C@H](CO)NC(=O)[C@H](CCC(=O)O)NC(=O)[C@H](CCC(=O)O)NC(=O)[C@H](CCCCN)NC1=O` [TACC3 518-532-L/R-Bph-BrF/fP] (Ac-LECKEES[Phe(4-Br)]CD[Pro(trans-4-F)]AEVL-NH2; linker 3-9 via Biphenyl(4,4'-CH2)2): the IC50 (SD, read-out: IC50) is 22 ± 1 µM. Take `COc1ccc(C[C@H](NC(=O)[C@H](CO)NC(=O)[C@H](CCC(=O)O)NC(=O)[C@H](CCC(=O)O)NC(C)=O)C(=O)N[C@@H](CCCNC(=N)N)C(=O)N[C@@H](CC(=O)O)C(=O)N2CCC[C@H]2C(=O)N[C@@H](C)C(=O)N[C@@H](CCC(=O)O)C(=O)N[C@H](C(=O)N[C@@H](CC(C)C)C(=O)NCC(=O)N[C@H](C(=O)NCC(=O)N[C@@H](C)C(N)=O)[C@@H](C)O)C(C)C)cc1` [TACC3 522-536_F525Y(OMe)] (Ac-EESY(Me)RDPAEVLGTGA-NH2): the IC50 (read-out: IC50) was at least 300 µM.
